Results published in patent US7268108B2, “Alpha-melanocyte stimulating hormone derivatives and cosmetic application thereof” (Institut European de Biologie Cellulaire, priority 2002, dated 2007).
“Also recorded” adds a separate entry of the source. Where a SMILES comes first, the peptide text is derived from it. [ ]: non-standard residue; d: D form. Nle = CCCC[C@H](N)C(=O)O

System: cutaneous melanogenesis
Test: double-blind study of melanostimulant effects by topical administration in humans
Assay type: in vivo
Details: gel at 10 ppm, topical twice a day for 3 weeks, listed as peptide no. 1
Procedure: 2. A double-blind study of the melanostimulant effects by topical administration of peptide no. 1 in the table was carried out in humans.
A gel of peptide no. 1 at 10 ppm and its placebo were applied, twice a day for 3 weeks, to the inner face of the forearms of twelve normal volunteers who had given their informed consent. Since the arms were not exposed to the sun, they were given an exactly calibrated artificial solar exposure of 0.6 MED (minimum erythema dose) once a day from the 16th to 20th day.
24 h after the final treatment, a clinical evaluation of the treated regions was carried out blind, and the intensity of coloration was marked according to a five-level index scale. A biopsy sample was then taken in order to quantify the melanin produced and to evaluate the ultrastructural consequences of the treatment.
The quantification of the epidermal melanin was carried out on histological sections by image analysis after labeling with AgNO3. Only the active layers of the epidermis were analyzed (from the stratum germinativum to the stratum spinosum), using the Leica Quantimet after digitization (Sony CCD camera).
The ultrastructural analysis of the melanocytes and melanosomes was carried out by electron microscopy. A double-contrast technique was used on the thin sections, which were then observed at magnifications ranging up to ×12000 (Jeol 1200EX).

CCCC[C@H](NC(C)=O)C(=O)N[C@@H](C)C(=O)N[C@@H](Cc1c[nH]cn1)C(=O)N[C@H](Cc1ccccc1)C(=O)N[C@@H](CCCNC(=N)N)C(=O)N[C@@H](Cc1c[nH]c2ccccc12)C(N)=O [Compound 1, Ac-Nle-Ala-His-DPhe-Arg-Trp-NH2] (Ac-[Nle]AH[dF]RW-NH2)
local tolerance (clinical observation of the treated regions): no sign of intolerance; also recorded: completely tolerated at the local level
